In ChEMBL document CHEMBL1153292, “Atropisomeric small molecule Bcl-2 ligands: determination of bioactive conformation” (Bioorg Med Chem Lett, 2009):

Each compound was assayed against Apoptosis regulator Bcl-2 (Homo sapiens, UniProt P10415) (assay: Inhibition of GST fused Bcl-2 binding to biotinylated 16 mer BH3 peptide by HTRF-LANCE assay).
Chain of Apoptosis regulator Bcl-2 (P10415 whole entry, the tested form may be a part): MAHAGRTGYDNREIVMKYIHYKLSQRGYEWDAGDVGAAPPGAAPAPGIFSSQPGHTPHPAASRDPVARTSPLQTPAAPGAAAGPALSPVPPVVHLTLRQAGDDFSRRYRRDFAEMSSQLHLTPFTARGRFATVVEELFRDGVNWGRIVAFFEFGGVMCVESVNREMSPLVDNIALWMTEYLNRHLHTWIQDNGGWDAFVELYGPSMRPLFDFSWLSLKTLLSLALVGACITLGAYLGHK

Row | SMILES | IC50
1 | Cc1cccc(-n2nc(C(=O)N(c3ccccc3)c3ccccc3)cc2C)c1C(=O)N1Cc2ccccc2C[C@H]1CO (atropisomer aS) | 210 nM
2 | Cc1cccc(-n2nc(C(=O)N(c3ccccc3)c3ccccc3)cc2C)c1C(=O)N1Cc2ccccc2C[C@@H]1CO (atropisomer aR; form 3) | 390 nM
3 | Cc1cccc(-n2nc(C(=O)N(c3ccccc3)c3ccccc3)cc2C)c1C(=O)N1Cc2ccccc2CC1CO (configuration not stated) | 600 nM

Now from value to compound:

Row | IC50 | SMILES
4 | 175 nM | CCCCN(CCCC)C(=O)c1cc(C)n(-c2cccc(C)c2C(=O)N2Cc3ccccc3C[C@H]2CN)n1
5 | 42 nM | CCCCN(CCCC)C(=O)c1nn(-c2cccc(C)c2C(=O)N2Cc3ccccc3C[C@H]2CN)c(C)c1Cl
6 | 1100 nM | Cc1cccc(-n2nc(C(=O)N(c3ccccc3)c3ccccc3)cc2C)c1C(=O)N1Cc2ccccc2C[C@@H]1CO (atropisomer aR; form 1)
7 | 6100 nM | Cc1cccc(-n2nc(C(=O)N(c3ccccc3)c3ccccc3)cc2C)c1C(=O)N1Cc2ccccc2C[C@@H]1CO (atropisomer aR; form 2)
